From US12559509B1, “Citrate coordination complex of an orally-delivered beta-lactamase inhibitor and uses thereof” (priority 2023, dated 2026)
Structures can show the parent of a compound that is named as a salt. Blank lines part the entries; values can stand above or below the compound they belong to.

Columns and labels:
[1] = Excipient compatibility at 50° C., HPLC purity; format: physicochemical; conditions: for chemical stability in the presence of the excipients (in words): accelerated data
Experimental: The compatibility of the drug substances with select functional excipients was confirmed by comparing the assay and purity of samples stored at 50° C. for 5 weeks to the drug substance control samples. The excipients tested included: microcrystalline cellulose (binder); magnesium stearate (lubricant); sodium starch glycolate (disintegrant); and colloidal silica (glidant). […] The samples were transferred to a 3-dram glass vial with a tight-fitting cap and placed in a 50° C. oven.

[2] = monkeys, reported; cited from earlier work
[3] = Chemical stability of drug substance controls and binary blend, HPLC purity; format: physicochemical; conditions: for degradation (in words): controls and binary blend, 25° C. and 40° C., through 12 weeks
[4] = Dissolution testing (Apparatus II method) of capsule prototypes; format: physicochemical; conditions: FDC capsule with ceftibuten dihydrate, 900 mL pH 6.8 50 mM sodium bicarbonate buffer, 75 RPM paddle
Experimental: In some embodiments, the citrate coordination complex allows for the development of a dry powder, immediate release formulation as compared to other forms, such as the ethanolate, which could not be formulated directly as an immediate release formulation. […] Dissolution testing (Apparatus II method) was performed using 900 mL of pH 6.8 50 mM sodium bicarbonate buffer solution and a 75 RPM paddle speed.

[5] = Dynamic Vapor Sorption (DVS) analysis; format: physicochemical; conditions: for solid form after DVS cycle, by XRPD: 0% RH to 98% RH and back to 0% RH; for weight gain: above 85% RH (up to 98% RH); for weight gain with increasing RH: between 0% RH and 85% RH
Experimental: Moisture sorption/desorption data were collected on a DVS-intrinsic vapor sorption analyzer (Surface Measurement Systems NA, Allentown, PA, USA) and operated with DVS-intrinsic control software (Version 1.0.5.1). Samples were not dried prior to analysis. Sorption and desorption data were collected over a range from 5% to 98% relative humidity (RH) via 10% RH increments under a nitrogen purge. The equilibrium criterion used for analysis was less than 0.005% weight change in 10 min with a maximum equilibration time of 3 h.
The DVS isotherm of Form B is qualitatively similar to that of Form A. Form B lost 0.1 wt % upon equilibration at ˜0% RH.

[6] = drug substance control, 25° C. Storage, 0 weeks
[7] = drug substance control, 25° C. Storage, 5 weeks
[8] = drug substance control, 25° C. Storage, 8 weeks
[9] = drug substance control, 25° C. Storage, 12 weeks
[10] = drug substance control, 40° C. Storage, 0 weeks
[11] = drug substance control, 40° C. Storage, 5 weeks
[12] = drug substance control, 40° C. Storage, 8 weeks
[13] = drug substance control, 40° C. Storage, 12 weeks
[14] = in binary Blend, 25° C. Storage, 0 weeks
[15] = in binary Blend, 25° C. Storage, 5 weeks
[16] = in binary Blend, 25° C. Storage, 8 weeks
[17] = in binary Blend, 25° C. Storage, 12 weeks
[18] = in binary Blend, 40° C. Storage, 0 weeks
[19] = in binary Blend, 40° C. Storage, 8 weeks
[20] = in binary Blend, 40° C. Storage, 12 weeks

SMILES: Nc1nc(/C(=C/CC(=O)O)C(=O)N[C@@H]2C(=O)N3C(C(=O)O)=CCS[C@H]23)cs1 [Ceftibuten, reference compound]
chemical stability in the presence of the excipients (in words) [1]: comparable to the stability for the drug substance controls
bioavailability [2]: ~20%

SMILES: CCC(=O)N[C@@H](Cc1cccc(C(=O)OCOC(=O)C(CC)CC)c1O)B1OC(=O)C(CC(=O)O)(CC(=O)O)O1 [Compound 1 citrate coordination complex, (R)-2,2′-(2-(2-(3-((((2-ethylbutanoyl)oxy)methoxy)carbonyl)-2-hydroxyphenyl)-1-propionamidoethyl)-5-oxo-1,3,2-dioxaborolane-4,4-diyl)diacetic acid]
degradation (in words) [3]: no degradation
HPLC purity (% peak area) [3, 6]: 100.0%
HPLC purity (% peak area) [3, 7]: 100.0%
HPLC purity (% peak area) [3, 8]: 100.0%
HPLC purity (% peak area) [3, 9]: 100.0%
HPLC purity (% peak area) [3, 10]: 100.0%
HPLC purity (% peak area) [3, 11]: 100.0%
HPLC purity (% peak area) [3, 12]: 100.0%
HPLC purity (% peak area) [3, 13]: 100.0%
HPLC purity (% peak area) [3, 14]: 100.0%
HPLC purity (% peak area) [3, 15]: 100.0%
HPLC purity (% peak area) [3, 16]: 100.0%
HPLC purity (% peak area) [3, 17]: 100.0%
HPLC purity (% peak area) [3, 18]: 100.0%
HPLC purity (% peak area) ([3]; in binary Blend, 40° C. Storage, 5 weeks): 100.0%
HPLC purity (% peak area) [3, 19]: 100.0%
HPLC purity (% peak area) [3, 20]: 100.0%
HPLC Purity (Peak Area %) Compound 1 ([1]; 2 weeks): 100.0%
HPLC Purity (Peak Area %) Compound 1 ([1]; 5 weeks): 100.0%
chemical stability in the presence of the excipients (in words) [1]: comparable to the stability for the drug substance controls
release of the drug substance ([4]; by 10 minutes): 100%

SMILES: CCOB1Oc2c(cccc2C(=O)OCOC(=O)C(CC)CC)C[C@@H]1NC(=O)CC [Compound 1 Ethanolate, ((2-ethylbutanoyl)oxy)methyl (R)-2-ethoxy-3-propionamido-3,4-dihydro-2H-benzo[e][1,2]oxaborinine-8-carboxylate]
release of the drug substance ([4]; at 60 minutes): < 40%

SMILES: CCC(=O)N[C@@H](Cc1cccc(C(=O)OCOC(=O)C(CC)CC)c1O)B1OC(=O)C(CC(=O)O)(CC(=O)O)O1 [(R)-(2-(3-((((2-ethylbutanoyl)oxy)methoxy)carbonyl)-2-hydroxyphenyl)-1-propionamidoethyl)boronic acid citrate]
solid form after DVS cycle, by XRPD [5]: remained crystalline, as Form A
hygroscopicity (in words) ([5]; 0-85% RH): non-hygroscopic
Change In Mass (%)-ref, Desorption ([5]; Target RH 0.0 %): −0.023%
Change In Mass (%)-ref, Sorption ([5]; Target RH 0.0 %): 0.000%
Change In Mass (%)-ref, Desorption ([5]; Target RH 5.0 %): 0.012%
Change In Mass (%)-ref, Hysteresis ([5]; Target RH 5.0 %): −0.006%
Change In Mass (%)-ref, Sorption ([5]; Target RH 5.0 %): 0.019%
Change In Mass (%)-ref, Desorption ([5]; Target RH 15.0 %): 0.065%
Change In Mass (%)-ref, Hysteresis ([5]; Target RH 15.0 %): −0.008%
Change In Mass (%)-ref, Sorption ([5]; Target RH 15.0 %): 0.073%
Change In Mass (%)-ref, Desorption ([5]; Target RH 25.0 %): 0.119%
Change In Mass (%)-ref, Hysteresis ([5]; Target RH 25.0 %): −0.003%
Change In Mass (%)-ref, Sorption ([5]; Target RH 25.0 %): 0.121%
Change In Mass (%)-ref, Desorption ([5]; Target RH 35.0 %): 0.167%
Change In Mass (%)-ref, Hysteresis ([5]; Target RH 35.0 %): 0.008%
Change In Mass (%)-ref, Sorption ([5]; Target RH 35.0 %): 0.159%
Change In Mass (%)-ref, Desorption ([5]; Target RH 45.0 %): 0.218%
Change In Mass (%)-ref, Hysteresis ([5]; Target RH 45.0 %): 0.013%
Change In Mass (%)-ref, Sorption ([5]; Target RH 45.0 %): 0.205%
Change In Mass (%)-ref, Desorption ([5]; Target RH 55.0 %): 0.279%
Change In Mass (%)-ref, Hysteresis ([5]; Target RH 55.0 %): 0.019%
Change In Mass (%)-ref, Sorption ([5]; Target RH 55.0 %): 0.259%
Change In Mass (%)-ref, Desorption ([5]; Target RH 65.0 %): 0.356%
Change In Mass (%)-ref, Hysteresis ([5]; Target RH 65.0 %): 0.038%
Change In Mass (%)-ref, Sorption ([5]; Target RH 65.0 %): 0.318%
Change In Mass (%)-ref, Desorption ([5]; Target RH 85.0 %): 0.604%
Change In Mass (%)-ref, Hysteresis ([5]; Target RH 85.0 %): 0.102%
Change In Mass (%)-ref, Sorption ([5]; Target RH 85.0 %): 0.502%
Change In Mass (%)-ref, Desorption ([5]; Target RH 95.0 %): 4.054%
Change In Mass (%)-ref, Hysteresis ([5]; Target RH 95.0 %): 0.764%
Change In Mass (%)-ref, Sorption ([5]; Target RH 95.0 %): 3.289%
Change In Mass (%)-ref, Desorption ([5]; Target RH 98.0 %): 4.006%
Change In Mass (%)-ref, Sorption ([5]; Target RH 98.0 %): 4.006%
Change In Mass (%)-ref, Desorption ([5]; Target RH […]): 0.457%
Change In Mass (%)-ref, Hysteresis ([5]; Target RH […]): 0.056%
Change In Mass (%)-ref, Sorption ([5]; Target RH […]): 0.401%
weight gain [5]: 4.0%
weight gain with increasing RH [5]: 0.5 wt %

The next lines start with results.

degradation (in words) [3]: temperature dependent degradation
HPLC purity (% peak area) [3, 6]: 98.6%
HPLC purity (% peak area) [3, 7]: 98.6%
HPLC purity (% peak area) [3, 8]: 98.6%
HPLC purity (% peak area) [3, 9]: 98.4%
HPLC purity (% peak area) [3, 10]: 98.6%
HPLC purity (% peak area) [3, 11]: 98.4%
HPLC purity (% peak area) [3, 12]: 96.7%
HPLC purity (% peak area) [3, 13]: 92.8%
HPLC purity (% peak area) [3, 14]: 98.4%
HPLC purity (% peak area) [3, 15]: 98.6%
HPLC purity (% peak area) [3, 16]: 98.3%
HPLC purity (% peak area) [3, 17]: 96.8%
HPLC purity (% peak area) [3, 18]: 97.5%
HPLC purity (% peak area) [3, 19]: 94.8%
HPLC purity (% peak area) [3, 20]: 93.7%
HPLC Purity (Peak Area %) Ceftibuten ([1]; 2 weeks): 99.2%
HPLC Purity (Peak Area %) Ceftibuten ([1]; 5 weeks): 94.8%
SMILES: Nc1nc(/C(=C/CC(=O)O)C(=O)N[C@@H]2C(=O)N3C(C(=O)O)=CCS[C@H]23)cs1 [Ceftibuten dihydrate, reference compound]

Change In Mass (%)-ref, Desorption ([5]; Target RH 0.0 %): −0.17%
Change In Mass (%)-ref, Sorption ([5]; Target RH 0.0 %): −0.07%
Change In Mass (%)-ref, Desorption ([5]; Target RH 5.0 %): −0.13%
Change In Mass (%)-ref, Hysteresis ([5]; Target RH 5.0 %): −0.07%
Change In Mass (%)-ref, Sorption ([5]; Target RH 5.0 %): −0.05%
Change In Mass (%)-ref, Desorption ([5]; Target RH 15.0 %): −0.05%
Change In Mass (%)-ref, Hysteresis ([5]; Target RH 15.0 %): −0.08%
Change In Mass (%)-ref, Sorption ([5]; Target RH 15.0 %): 0.04%
Change In Mass (%)-ref, Desorption ([5]; Target RH 25.0 %): 0.06%
Change In Mass (%)-ref, Hysteresis ([5]; Target RH 25.0 %): −0.07%
Change In Mass (%)-ref, Sorption ([5]; Target RH 25.0 %): 0.13%
Change In Mass (%)-ref, Desorption ([5]; Target RH 35.0 %): 0.13%
Change In Mass (%)-ref, Hysteresis ([5]; Target RH 35.0 %): −0.04%
Change In Mass (%)-ref, Sorption ([5]; Target RH 35.0 %): 0.17%
Change In Mass (%)-ref, Desorption ([5]; Target RH 45.0 %): 0.25%
Change In Mass (%)-ref, Hysteresis ([5]; Target RH 45.0 %): −0.06%
Change In Mass (%)-ref, Sorption ([5]; Target RH 45.0 %): 0.31%
Change In Mass (%)-ref, Desorption ([5]; Target RH 55.0 %): 0.43%
Change In Mass (%)-ref, Hysteresis ([5]; Target RH 55.0 %): 0.02%
Change In Mass (%)-ref, Sorption ([5]; Target RH 55.0 %): 0.41%
Change In Mass (%)-ref, Desorption ([5]; Target RH 65.0 %): 0.56%
Change In Mass (%)-ref, Hysteresis ([5]; Target RH 65.0 %): 0.03%
Change In Mass (%)-ref, Sorption ([5]; Target RH 65.0 %): 0.53%
Change In Mass (%)-ref, Desorption ([5]; Target RH 85.0 %): 1.11%
Change In Mass (%)-ref, Hysteresis ([5]; Target RH 85.0 %): 0.13%
Change In Mass (%)-ref, Sorption ([5]; Target RH 85.0 %): 0.98%
Change In Mass (%)-ref, Desorption ([5]; Target RH 95.0 %): 11.32%
Change In Mass (%)-ref, Hysteresis ([5]; Target RH 95.0 %): 2.85%
Change In Mass (%)-ref, Sorption ([5]; Target RH 95.0 %): 8.47%
Change In Mass (%)-ref, Desorption ([5]; Target RH 98.0 %): 11.18%
Change In Mass (%)-ref, Sorption ([5]; Target RH 98.0 %): 11.18%
Change In Mass (%)-ref, Desorption ([5]; Target RH […]): 0.79%
Change In Mass (%)-ref, Hysteresis ([5]; Target RH […]): 0.12%
Change In Mass (%)-ref, Sorption ([5]; Target RH […]): 0.66%
weight gain [5]: 11.2%
weight lost upon equilibration ([5]; at ˜0% RH): 0.1 wt %
weight gain with increasing RH [5]: ~1.0 wt %
SMILES: CCC(=O)N[C@@H](Cc1cccc(C(=O)OCOC(=O)C(CC)CC)c1O)B(O)O.O=C(O)CC(O)(CC(=O)O)C(=O)O [(R)-(2-(3-((((2-ethylbutanoyl)oxy)methoxy)carbonyl)-2-hydroxyphenyl)-1-propionamidoethyl)boronic acid citrate]
solid form after DVS cycle, by XRPD [5]: XRPD of the sample matched that of the material before DVS analysis
